Measurements: patent US20260062422A1 (Halda Therapeutics OpCo, Inc., priority 2022, published 2026)

Experiments:
[1] = test system: T-Rex 293 cell line SC3 cells having increased expression of androgen receptor protein due to exposure to doxycycline; test: Cellular growth inhibition, T-Rex 293 SC3 cells with doxycycline (androgen receptor induced), CellTiter-Glo; type: cell-based; conditions: 72 h, T-Rex 293 SC3 cells with 10 ng/mL doxycycline (increased androgen receptor expression)
Outline: (§1)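 GI50 came from a four-parameter fit of CellTiter-Glo 2.0 luminescence after 72 h compound exposure (0.5% DMSO, 37 °C), dosing 24 h post-seeding. SC3 clone cells (2500/well), transfected with wild-type androgen receptor, grew in charcoal-stripped serum medium lacking phenol red, induced with 10 ng/mL doxycycline or left uninduced.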

T47D cells = test: Cellular growth inhibition assay for T47D cells, CellTiter-Glo; type: cell-based, human; conditions: Homo sapiens, T47D, 72 h, 72 hours treatment, CellTiter-Glo 2.0 cell viability
Outline: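 Luminescence from CellTiter-Glo 2.0 after 72 h of compound exposure gives the viability signal. Cells grew in insulin-supplemented (0.2 units/mL) DMEM with 10% FBS and were treated one day after seeding at 0.5% DMSO. GI50 values come from four-parameter nonlinear regression.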

VCaP cells = test: Cellular growth inhibition assay for VCaP cells, CellTiter-Glo; type: cell-based, human; conditions: 72 hours treatment, CellTiter-Glo 2.0
Outline: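 GI50 values come from four-parameter curve fits of luminescence data normalized to a zero baseline. Compound, in medium with 0.5% DMSO, was added one day after plating and left for 72 h before CellTiter-Glo 2.0 addition.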

[2] = test system: T-Rex 293 cell line SC3 cells lacking increased expression of androgen receptor protein; test: Cellular growth inhibition, T-Rex 293 SC3 cells without doxycycline, CellTiter-Glo; type: cell-based; conditions: 72 h, T-Rex 293 SC3 cells not exposed to doxycycline, CellTiter-Glo 2.0
Outline: as §1

Row | SMILES | GI50 (T47D cells) | GI50 (VCaP cells; Homo sapiens, VCaP, 72 h) | GI50 (VCaP cells) | GI50 [1] | GI50 [2]
1 | Cc1sc2c(c1C)C(c1ccc(N3CCC[C@H](C(=O)N4CCC[C@H](c5ncc(C(=O)N[C@H]6C(C)(C)[C@H](Oc7ccc(C#N)c(Cl)c7)C6(C)C)cn5)C4)C3)cc1)=N[C@H](Cc1ncco1)c1nnc(C)n1-2 [Compound I-338] | > 3 µM | > 3 µM | – | > 3 µM | > 3 µM
2 | Cc1sc2c(c1C)C(c1ccc(OC3CC4(CCN(c5ncc(C(=O)N[C@H]6C(C)(C)[C@H](Oc7ccc(C#N)c(Cl)c7)C6(C)C)cn5)CC4)C3)cc1)=N[C@@](C)(C(C)c1ncco1)c1nnc(C)n1-2 (some centres unmarked) [Compound I-262] | > 3 µM | > 3 µM | – | < 0.5 µM | > 3 µM
3 | CNc1ccc2c(n1)C(c1ccc(OC3CC4(CCCN(c5ncc(C(=O)N[C@H]6C(C)(C)[C@H](Oc7ccc(C#N)c(Cl)c7)C6(C)C)cn5)C4)C3)cc1)=NCc1onc(C)c1-2 [Compound I-231, N-[3-(3-chloro-4-cyano-phenoxy)-2,2,4,4-tetramethyl-cyclobutyl]-2-[2-[4-[3-methyl-12-(methylamino)-5-oxa-4,8,11-triazatricyclo [8.4.0.02,6]tetradeca-1(10),2(6),3,8,11,13-hexaen-9-yl]phenoxy]-6-azaspiro[3.5]nonan-6-yl]pyrimidine-5-carboxamide] | > 3 µM | > 3 µM | – | < 0.5 µM | > 3 µM
4 | Cc1sc2c(c1C)C(c1ccc(C[C@@H]3CC[C@]4(C3)CN(c3ncc(C(=O)N[C@H]5C(C)(C)[C@H](Oc6ccc(C#N)c(Cl)c6)C5(C)C)cn3)CCO4)cc1)=N[C@H](Cc1ncco1)c1nnc(C)n1-2 [Compound I-312] | 1.5 to 3 µM | < 0.5 µM | – | < 0.5 µM | < 0.5 µM
5 | Cc1sc2c(c1C)C(c1ccc(C(=O)N3CCN(CCc4ncc(C(=O)N[C@H]5C(C)(C)[C@H](Oc6ccc(C#N)c(Cl)c6)C5(C)C)cn4)CC3)cc1)=N[C@H](Cc1ncco1)c1nnc(C)n1-2 [Compound I-357] | 1.5 to 3 µM | > 3 µM | – | 0.5 to 1.5 µM | > 3 µM
6 | Cc1sc2c(c1C)C(c1ccc(N3CCC(CNC(=O)c4ncc(C(=O)N[C@H]5C(C)(C)[C@H](Oc6ccc(C#N)c(Cl)c6)C5(C)C)cn4)CC3)cc1)C[C@@H](Cc1ncco1)c1nnc(C)n1-2 (some centres unmarked) [Compound I-276] | > 3 µM | 1.5 to 3 µM | – | > 3 µM | > 3 µM
7 | Cc1sc2c(c1C)C(c1ccc([C@H]3C[C@H](C[C@@H]4CCCN(c5ncc(C(=O)N[C@H]6C(C)(C)[C@H](Oc7ccc(C#N)c(Cl)c7)C6(C)C)cn5)C4)C3)cc1)=N[C@@H](Cc1ncco1)c1nnc(C)n1-2 [Compound I-402] | < 0.5 µM | – | 0.5 to 1.5 µM | < 0.5 µM | > 3 µM
8 | Cc1sc2c(c1C)C(c1ccc([C@H]3C[C@@H](C[C@@H]4CCCN(c5ncc(C(=O)N[C@H]6C(C)(C)[C@H](Oc7ccc(C#N)c(Cl)c7)C6(C)C)cn5)C4)C3)cc1)=N[C@@H](Cc1ncco1)c1nnc(C)n1-2 [Compound I-400] | > 3 µM | > 3 µM | – | > 3 µM | > 3 µM
9 | Cc1sc2c(c1C)C(c1ccc(N3CC(CC4CCN(c5ccc(C(=O)N[C@H]6C(C)(C)[C@H](Oc7ccc(C#N)c(Cl)c7)C6(C)C)nc5)CC4)C3)cc1)=N[C@@H](C)c1nnc(C)n1-2 [Compound I-449] | 0.5 to 1.5 µM | > 3 µM | – | > 3 µM | > 3 µM
10 | Cc1sc2c(c1C)C(c1ccc(OC3CC4(CCN(c5ncc(C(=O)N[C@H]6C(C)(C)[C@H](Oc7ccc(C#N)c(Cl)c7)C6(C)C)cn5)CC4)C3)cc1)=NC(C(F)(F)F)c1nnc(C)n1-2 (some centres unmarked) [Compound I-600] | > 3 µM | – | > 3 µM | > 3 µM | > 3 µM
11 | Cc1sc2c(c1C)C(c1ccc(C(C)(C)CN3CC4(CCCN(c5ncc(C(=O)NC6C(C)(C)C(Oc7ccc(C#N)c(Cl)c7)C6(C)C)cn5)C4)C3)cc1)=N[C@@H](Cc1ncco1)c1nnc(C)n1-2 (some centres unmarked) [Compound I-479] | 0.5 to 1.5 µM | < 0.5 µM | – | < 0.5 µM | 0.5 to 1.5 µM
12 | Cc1sc2c(c1C)C(c1ccc(C(F)(F)N3CC4(CCN(c5ncc(C(=O)N[C@H]6C(C)(C)[C@H](Oc7ccc(C#N)c(Cl)c7)C6(C)C)cn5)CC4)C3)cc1)=N[C@@H](Cc1ncco1)c1nnc(C)n1-2 [Compound I-504] | < 0.5 µM | < 0.5 µM | – | < 0.5 µM | > 3 µM
13 | Cc1sc2c(c1C)C(c1ccc(N3CC(CC4CCN(c5ncc(C(=O)N(C)[C@H]6C(C)(C)[C@H](Oc7ccc(C#N)c(Cl)c7)C6(C)C)cn5)CC4)C3)cc1)=N[C@@H](C)c1nnc(C)n1-2 [Compound I-618] | < 0.5 µM | 1.5 to 3 µM | – | < 0.5 µM | > 3 µM
14 | Cc1sc2c(c1C)C(c1ccc(CC[C@@H]3CC[C@@]4(CCCN(c5ncc(C(=O)N[C@H]6C(C)(C)[C@H](Oc7ccc(C#N)c(Cl)c7)C6(C)C)cn5)C4)C3)cc1)=N[C@@H](Cc1ncco1)c1nnc(C)n1-2 [Compound I-249] | > 3 µM | > 3 µM | – | > 3 µM | > 3 µM

Further lines, with some results ahead:

Row | GI50 (T47D cells) | GI50 (VCaP cells; Homo sapiens, VCaP, 72 h) | GI50 (VCaP cells) | SMILES | GI50 [1] | GI50 [2]
15 | < 0.5 µM | < 0.5 µM | – | Cc1sc2c(c1C)C(c1ccc(CCOC3CCN(c4ncc(C(=O)N[C@H]5C(C)(C)[C@H](Oc6ccc(C#N)c(Cl)c6)C5(C)C)cn4)CC3)cc1)=NC(Cc1ncco1)c1nnc(C)n1-2 (some centres unmarked) [Compound I-140] | < 0.5 µM | < 0.5 µM
16 | < 0.5 µM | < 0.5 µM | – | Cc1sc2c(c1C)C(c1ccc(CC[C@H]3C[C@@]4(CCCN(c5ncc(C(=O)N[C@H]6C(C)(C)[C@H](Oc7ccc(C#N)c(Cl)c7)C6(C)C)cn5)C4)C3)cc1)=N[C@@H](C)c1nnc(C)n1-2 [Compound I-368] | < 0.5 µM | > 3 µM
17 | < 0.5 µM | < 0.5 µM | – | Cc1sc2c(c1C)C(c1ccc(OCC[C@@H]3CCCN(c4ncc(C(=O)N[C@H]5C(C)(C)[C@H](Oc6ccc(C#N)c(Cl)c6)C5(C)C)cn4)C3)cc1)=N[C@@H](Cc1ncco1)c1nnc(C)n1-2 [Compound I-300] | < 0.5 µM | 0.5 to 1.5 µM
18 | < 0.5 µM | < 0.5 µM | – | Cc1sc2c(c1C)C(c1ccc(NC[C@@H]3CN(c4ncc(C(=O)N[C@H]5C(C)(C)[C@H](Oc6ccc(C#N)c(Cl)c6)C5(C)C)cn4)CCO3)cc1)=N[C@@H](Cc1ncco1)c1nnc(C)n1-2 [Compound I-646] | < 0.5 µM | < 0.5 µM
19 | < 0.5 µM | < 0.5 µM | – | Cc1sc2c(c1C)C(c1ccc([C@H]3C[C@H]([C@@H]4CCCN(c5ncc(C(=O)N[C@H]6C(C)(C)[C@H](Oc7ccc(C#N)c(Cl)c7)C6(C)C)cn5)C4)C3)cc1)=N[C@@H](Cc1ncco1)c1nnc(C)n1-2 [Compound I-422] | < 0.5 µM | > 3 µM
20 | < 0.5 µM | < 0.5 µM | – | Cc1sc2c(c1C)C(c1ccc(CN3CC4(CCCN(c5ncc(C(=O)N[C@H]6C(C)(C)[C@H](Oc7ccc(C#N)c(Cl)c7)C6(C)C)cn5)C4)C3)cc1)=N[C@@H](Cc1ncco1)c1nnc(C)n1-2 [Compound I-148] | < 0.5 µM | < 0.5 µM
